# Source: ChEMBL document CHEMBL1138414, “Discovery of galectin ligands in fully randomized combinatorial one-bead-one-compound (glyco)peptide libraries” (2007)
# Calls of active or inactive are those of the source. No cut-off for these calls is given here. Non-standard residues stand in square brackets, D forms with d. Residues, ends and D or L forms follow the SMILES beside them. *: point of attachment. X1 = OC[C@H]1O[C@@H](O[C@H]2[C@H](O)[C@@H](O)[C@@H](*)O[C@@H]2CO)[C@H](O)[C@@H](O)[C@H]1O; βGal = OC[C@H]1O[C@@H](*)[C@H](O)[C@@H](O)[C@H]1O; X2 = OC[C@H]1O[C@@H](N*)[C@H](O)[C@@H](O)[C@H]1O; Cha = N[C@@H](CC1CCCCC1)C(=O)O
# Key:
# [1] = molecular target: Galectin-1 (Homo sapiens) (UniProt P09382); test: Inhibition of carbohydrate-dependent human galectin1 binding at 10 mM by solid phase assay
# CAPAN-1 = test: Inhibition of carbohydrate-dependent galectin1 binding to human Capan1 cell surface at 2mM; format: functional; set-up: scale not given: the % may be the effect or the level left
# [2] = molecular target: Galectin-3 (Homo sapiens) (UniProt P17931); test: Inhibition of carbohydrate-dependent human galectin3 binding at 10 mM by solid phase assay
# SW480 [3] = test: Inhibition of carbohydrate-dependent galectin3 binding to human SW480 cell surface at 1mM; format: functional; set-up: scale not given: the % may be the effect or the level left
# SW480 [4] = test: Inhibition of carbohydrate-dependent galectin3 binding to human SW480 cell surface at 0.5mM; format: functional, cell-based; set-up: scale not given: the % may be the effect or the level left
# SW480 [5] = test: Inhibition of carbohydrate-dependent galectin3 binding to human SW480 cell surface at 2mM; format: functional, cell-based; set-up: scale not given: the % may be the effect or the level left
# SW480 [6] = test: Inhibition of carbohydrate-dependent galectin3 binding to human SW480 cell surface at 5 mM; format: functional, cell-based; set-up: scale not given: the % may be the effect or the level left
# Galectin-1 (Homo sapiens), sequence (P09382 whole entry): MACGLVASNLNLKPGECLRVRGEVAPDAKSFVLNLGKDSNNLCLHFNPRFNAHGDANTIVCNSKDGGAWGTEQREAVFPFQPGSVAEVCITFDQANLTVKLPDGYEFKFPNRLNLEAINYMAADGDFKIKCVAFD
# Galectin-3 (Homo sapiens), sequence (P17931 whole entry): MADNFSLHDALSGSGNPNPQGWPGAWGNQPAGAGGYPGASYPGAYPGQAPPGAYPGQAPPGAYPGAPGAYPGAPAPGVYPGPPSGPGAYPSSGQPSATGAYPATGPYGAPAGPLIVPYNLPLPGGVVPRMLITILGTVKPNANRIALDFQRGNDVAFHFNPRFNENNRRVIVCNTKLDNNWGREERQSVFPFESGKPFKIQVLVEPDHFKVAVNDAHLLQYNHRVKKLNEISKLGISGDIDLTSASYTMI
Compound,inhibition [1],inhibition [2],other results
CSCC[C@H](NC(=O)[C@@H](N)[C@@H](C)O[C@H]1O[C@H](CO)[C@@H](O[C@@H]2O[C@H](CO)[C@H](O)[C@H](O)[C@H]2O)[C@H](O)[C@H]1O)C(=O)N[C@@H](CCCNC(=N)N)C(=O)N[C@@H](C)C(=O)N[C@H](C(=O)N[C@@H](CC1CCCCC1)C(=O)O)[C@@H](C)O[C@H]1O[C@H](CO)[C@@H](O[C@@H]2O[C@H](CO)[C@H](O)[C@H](O)[C@H]2O)[C@H](O)[C@H]1O,38%,–,Activity (CAPAN-1): 22%
CC[C@H](C)[C@H](NC(=O)[C@H](Cc1ccccc1)NC(=O)[C@@H]1CCCN1)C(=O)N[C@@H](CC1CCCCC1)C(=O)N[C@@H](Cc1ccccc1)C(=O)N[C@@H](CCC(N)=O)C(=O)O,14%,–,–
CSCC[C@H](N)C(=O)N[C@@H](CCCNC(=N)N)C(=O)N[C@H](C(=O)N[C@@H](CCCNC(=N)N)C(=O)N[C@H](C(=O)N[C@@H](CCCNC(=N)N)C(=O)O)[C@@H](C)O[C@H]1O[C@H](CO)[C@@H](O[C@@H]2O[C@H](CO)[C@H](O)[C@H](O)[C@H]2O)[C@H](O)[C@H]1O)[C@@H](C)O[C@H]1O[C@H](CO)[C@@H](O[C@@H]2O[C@H](CO)[C@H](O)[C@H](O)[C@H]2O)[C@H](O)[C@H]1O,–,inactive,–
C[C@@H](O)[C@H](NC(=O)[C@H](Cc1ccc(O)cc1)NC(=O)[C@H](CC1CCCCC1)NC(=O)[C@H](Cc1cnc[nH]1)NC(=O)[C@H](CC1CCCCC1)NC(=O)[C@@H](N)Cc1ccc(O)cc1)C(=O)O,9%,–,–
C[C@H](NC(=O)[C@@H](N)[C@@H](C)O[C@H]1O[C@H](CO)[C@@H](O[C@@H]2O[C@H](CO)[C@H](O)[C@H](O)[C@H]2O)[C@H](O)[C@H]1O)C(=O)N[C@@H](CC(N)=O)C(=O)N[C@@H](Cc1ccc(O)cc1)C(=O)N[C@H](C(=O)N[C@@H](CCCNC(=N)N)C(=O)O)[C@@H](C)O[C@H]1O[C@H](CO)[C@@H](O[C@@H]2O[C@H](CO)[C@H](O)[C@H](O)[C@H]2O)[C@H](O)[C@H]1O,–,15%,–
OC[C@H]1O[C@@H](O)[C@H](O)[C@@H](O)[C@H]1O,17%,inactive,–
CC[C@H](C)[C@H](NC(=O)[C@H](Cc1ccccc1)NC(=O)[C@@H](NC(=O)CN)C(C)C)C(=O)N[C@@H](CC1CCCCC1)C(=O)N[C@@H](C)C(=O)O (H-GVFI[Cha]A-OH),inactive,–,–
CC[C@H](C)[C@H](NC(=O)[C@H](CCCNC(=N)N)NC(=O)[C@@H](NC(=O)[C@H](Cc1ccccc1)NC(=O)[C@@H](NC(=O)[C@@H](N)CC(N)=O)[C@@H](C)O[C@H]1O[C@H](CO)[C@@H](O[C@@H]2O[C@H](CO)[C@H](O)[C@H](O)[C@H]2O)[C@H](O)[C@H]1O)C(C)C)C(=O)O (H-NT(X1)FVRI-OH),–,44%,Activity (SW480 [3]): 40%
O=C(O)[C@H](Cc1ccccc1)NC(=O)[C@H](Cc1ccccc1)NC(=O)[C@H](Cc1ccccc1)NC(=O)[C@H](Cc1ccccc1)NC(=O)[C@H](Cc1ccccc1)NC(=O)[C@@H]1CCCN1 (H-PFFFFF-OH),–,76%,–
CC[C@H](C)[C@H](NC(=O)[C@H](Cc1ccccc1)NC(=O)[C@H](Cc1ccccc1)NC(=O)[C@@H]1CCCN1)C(=O)N[C@@H](CO)C(=O)N[C@@H](CCCNC(=N)N)C(=O)O (H-PFFISR-OH),9%,–,Activity (SW480 [3]): 63%
CC(C)[C@H](NC(=O)[C@H](CC1CCCCC1)NC(=O)[C@H](CC(N)=O)NC(=O)[C@H](CC1CCCCC1)NC(=O)[C@@H]1CCCN1)C(=O)N[C@@H](Cc1ccc(O)cc1)C(=O)O (H-P[Cha]N[Cha]VY-OH),67%,–,–
CC(C)[C@H](NC(=O)[C@@H](N)CCCNC(=N)N)C(=O)N[C@@H](Cc1cnc[nH]1)C(=O)N[C@@H](Cc1ccc(O)cc1)C(=O)N[C@H](C(=O)N[C@@H](CCCNC(=N)N)C(=O)O)[C@@H](C)O[C@H]1O[C@H](CO)[C@@H](O[C@@H]2O[C@H](CO)[C@H](O)[C@H](O)[C@H]2O)[C@H](O)[C@H]1O (H-RVHYT(X1)R-OH),–,inactive,Activity (SW480 [3]): 35%
C[C@H](NC(=O)[C@@H](N)CO)C(=O)N[C@@H](CO)C(=O)N[C@@H](CO)C(=O)N[C@H](C(=O)N[C@@H](CCCNC(=N)N)C(=O)O)[C@@H](C)O[C@H]1O[C@H](CO)[C@@H](O[C@@H]2O[C@H](CO)[C@H](O)[C@H](O)[C@H]2O)[C@H](O)[C@H]1O (H-SASST(X1)R-OH),22%,–,–
CC[C@H](C)[C@H](NC(=O)[C@@H](N)[C@@H](C)O[C@@H]1O[C@H](CO)[C@H](O)[C@H](O)[C@H]1O)C(=O)N[C@H](C(=O)N[C@@H](CCC(N)=O)C(=O)N[C@@H](CC1CCCCC1)C(=O)N[C@@H](Cc1ccc(O)cc1)C(=O)O)[C@@H](C)CC (H-T(βGal)IIQ[Cha]Y-OH),inactive,–,Activity (SW480 [3]): 77%
CC[C@H](C)[C@H](NC(=O)[C@@H](NC(=O)[C@@H](N)CC1CCCCC1)C(C)C)C(=O)N[C@@H](CC(=O)N[C@@H]1O[C@H](CO)[C@H](O)[C@H](O)[C@H]1O)C(=O)N[C@@H](Cc1ccc(O)cc1)C(=O)N[C@@H](CCC(N)=O)C(=O)O (H-[Cha]VID(X2)YQ-OH),inactive,–,–
CSCC[C@H](NC(=O)[C@@H]1CCCN1C(=O)[C@H](CCCNC(=N)N)NC(=O)[C@H](CC1CCCCC1)NC(=O)[C@@H](N)CC1CCCCC1)C(=O)N[C@@H](CCCNC(=N)N)C(=O)O (H-[Cha][Cha]RPMR-OH),–,28%,–
"LACTOSE, ANHYDROUS",54%,44%,Activity (SW480 [4]): 43%; Activity (SW480 [5]): 24%; Activity (SW480 [3]): 44%; Activity (SW480 [6]): 10%

# Now from value to compound, other results behind:
inhibition [1],inhibition [2],Compound,other results
inactive,–,CC[C@H](C)[C@H](NC(=O)[C@@H](NC(=O)[C@H](CCCNC(=N)N)NC(=O)[C@H](CCCNC(=N)N)NC(=O)[C@H](Cc1ccc(O)cc1)NC(=O)[C@H](C)N)[C@@H](C)O[C@H]1O[C@H](CO)[C@@H](O[C@@H]2O[C@H](CO)[C@H](O)[C@H](O)[C@H]2O)[C@H](O)[C@H]1O)C(=O)O (H-AYRRT(X1)I-OH),–
3%,–,CC[C@H](C)[C@H](NC(=O)[C@@H](NC(=O)[C@H](CCCNC(=N)N)NC(=O)[C@@H]1CCCN1C(=O)[C@H](CCCNC(=N)N)NC(=O)[C@@H](N)Cc1ccccc1)[C@@H](C)O[C@H]1O[C@H](CO)[C@@H](O[C@@H]2O[C@H](CO)[C@H](O)[C@H](O)[C@H]2O)[C@H](O)[C@H]1O)C(=O)O (H-FRPRT(X1)I-OH),Activity (CAPAN-1): 12%
–,inactive,CC(C)[C@H](NC(=O)[C@H](Cc1cnc[nH]1)NC(=O)[C@@H](N)Cc1cnc[nH]1)C(=O)N[C@@H](Cc1ccc(O)cc1)C(=O)N[C@@H](Cc1ccc(O)cc1)C(=O)N[C@@H](Cc1cnc[nH]1)C(=O)O (H-HHVYYH-OH),–
70%,–,CC[C@H](C)[C@H](N)C(=O)N[C@@H](Cc1ccccc1)C(=O)N[C@@H](CCCNC(=N)N)C(=O)N[C@@H](CC1CCCCC1)C(=O)N[C@@H](CCCNC(=N)N)C(=O)N[C@@H](Cc1ccc(O)cc1)C(=O)O (H-IFR[Cha]RY-OH),–
22%,–,CSCC[C@H](N)C(=O)N[C@@H](Cc1ccccc1)C(=O)N[C@H](C(=O)N[C@@H](CC1CCCCC1)C(=O)N[C@@H](CC1CCCCC1)C(=O)N[C@@H](CCCNC(=N)N)C(=O)O)C(C)C (H-MFV[Cha][Cha]R-OH),–
inactive,–,CC[C@H](C)[C@H](NC(=O)[C@@H]1CCCN1)C(=O)N[C@@H](Cc1ccccc1)C(=O)N[C@H](C(=O)N[C@@H](CCCNC(=N)N)C(=O)N[C@@H](CCCNC(=N)N)C(=O)O)[C@@H](C)O[C@H]1O[C@H](CO)[C@@H](O[C@@H]2O[C@H](CO)[C@H](O)[C@H](O)[C@H]2O)[C@H](O)[C@H]1O (H-PIFT(X1)RR-OH),–
–,inactive,CC(C)[C@H](NC(=O)[C@@H](NC(=O)[C@@H]1CCCN1)[C@@H](C)O[C@H]1O[C@H](CO)[C@@H](O[C@@H]2O[C@H](CO)[C@H](O)[C@H](O)[C@H]2O)[C@H](O)[C@H]1O)C(=O)N[C@@H](C)C(=O)N1CCC[C@H]1C(=O)N[C@@H](CCCNC(=N)N)C(=O)O (H-PT(X1)VAPR-OH),–
inactive,–,CC[C@H](C)[C@H](NC(=O)[C@@H](NC(=O)[C@@H]1CCCN1)[C@@H](C)O)C(=O)N[C@@H](Cc1ccccc1)C(=O)N[C@@H](Cc1ccccc1)C(=O)N[C@@H](Cc1ccccc1)C(=O)O (H-PTIFFF-OH),–
inactive,–,CC[C@H](C)[C@H](NC(=O)[C@H](Cc1ccccc1)NC(=O)[C@H](CCCNC(=N)N)NC(=O)[C@H](CCCNC(=N)N)NC(=O)[C@H](CC1CCCCC1)NC(=O)[C@@H](N)[C@@H](C)O[C@H]1O[C@H](CO)[C@@H](O[C@@H]2O[C@H](CO)[C@H](O)[C@H](O)[C@H]2O)[C@H](O)[C@H]1O)C(=O)O (H-T(X1)[Cha]RRFI-OH),Activity (SW480 [3]): 34%
